Test system: adult patients with type 1 diabetes mellitus (overall and CKD cohorts)
Assay: Pooled inTandem1 and inTandem2 double-blind clinical studies, sotagliflozin adjunct to optimized insulin
Assay type: in vivo, human
Details: for No Weight Gain at Week 52, HbA1c <7.0%: Absolute difference in % / No Weight Gain at Week 52, reduction in HbA1c ≥0.5%: Absolute difference in % / No Weight Gain at Week 52: % with absolute reduction in HbA1c ≥0.5% / No Weight Gain at Week 52: Percentage HbA1c <7.0% / Weight, LS Mean (SE) kg: Percent Change (%) from Baseline at Week 24 / Weight, LS Mean (SE) kg: Percent Change (%) from Baseline at Week 52 / Weight, LS Mean (SE): Treatment Comparison vs. PBO, Week 24 / Weight, LS Mean (SE): Treatment Comparison vs. PBO, Week 52 / Any TEAE, n (%) / Diarrhea, n (%) / Genital mycotic infection, n (%) / HbA1c change from Baseline, Week 52 Treatment Comparison LS Mean (SE), %: overall cohort; for HbA1c change from Baseline, Week 24 Treatment Comparison LS Mean (SE), % / HbA1c change from Baseline, Week 52 Treatment Comparison LS Mean (SE), %: vs placebo
Procedure: The efficacy of sotagliflozin as adjunct therapy in adult patients with type 1 diabetes mellitus who have inadequate glycemic control with insulin therapy was evaluated in two multicenter, double-blind clinical studies named “in Tandem1” and “in Tandem2”. Patients were randomized into three treatment groups: those treated with sotagliflozin 200 mg/day, those treated with sotagliflozin 400 mg/day; and those treated with placebo.
Details of the in Tandem1 study have been reported. See, e.g., Buse, J. B., et al., “Sotagliflozin in Combination With Optimized Insulin Therapy in Adults With Type 1 Diabetes: The North American in Tandem1 Study” Diabetes Care 2018; 41: 1970-1980. Details of the in Tandem2 study have also been reported. See, e.g., Danne. T., et al., “HbA and Hypoglycemia 1c Reductions at 24 and 52 Weeks With Sotagliflozin in Combination With Insulin in Adults With Type 1 Diabetes: The European in Tandem2 Study” Diabetes Care 2018; 41: 1981-1990. Both studies included men and nonpregnant women aged≥18 years with T1D using either multiple daily injections (MDI) or subcutaneous insulin infusion (SCII) for insulin delivery and whose HbA1C was 7.0-11.0% at screening. Patients with β-hydroxybutyrate (BHB) levels>0.6 mmol/L at screening were excluded.
In both studies, insulin therapy was optimized for six weeks prior to randomization, and optimized insulin continued until the study conclusion at week 52. After a two-week placebo run-in, patients were randomly assigned to double-blind treatment with sotagliflozin 200 or 400 mg or placebo for 52 weeks. Insulin optimization, which refers to the adjustment of insulin to meet standard-of-care glycemic targets, starting six weeks prior to randomization and continued for the entire study. An independent insulin dose monitoring committee (IDMC) assessed standard-of-care adherence and provided feedback to the principal investigator if deviations from standard of care were observed prior to week 24. HbA1c was masked to study staff during this period. Between week 24 and 52, insulin optimization continued without input from the IDMC, and HbA1c values were unmasked. Safety was monitored for 30 days after the last dose of study medication.
The primary endpoint of both studies was the change from baseline to week 24 in glycated hemoglobin A1C of either dose of sotagliflozin (400 mg or 200 mg) treatment group compared to placebo. Other endpoints included the change from baseline of sotagliflozin versus placebo in: the proportion of patients with A1C<7.0% and no episode of severe hypoglycemia and no episode of DKA; body weight, bolus insulin dose, fasting plasma glucose (FPG), diabetes treatment satisfaction questionnaire status (DTSQs) score; and Diabetes Distress Screening Scale (DDS2) questionnaire score.
Efficacy analyses were based on the mITT (modified Intent-to-Treat) population. Primary efficacy analyses were conducted based on data collected during the Core Treatment Period (Baseline through and including the week 24 visit assessments). As shown below in Table 2, sotagliflozin achieved its primary endpoint by leading to statistically significant lower A1C levels for both doses when compared to placebo in the pooled in Tandem1/in Tandem2 study results after the core treatment and long-term extension periods.

[1] = 200 mg/day vs placebo, CKD Cohort, 52 weeks
[2] = 200 mg/day vs placebo, Overall Cohort, 52 weeks
[3] = 200 mg/day, CKD Cohort N = 85, 52 weeks
[4] = 200 mg/day, overall cohort N = 524, positively adjudicated, through 52 Weeks
[5] = 400 mg/day vs placebo, CKD Cohort, 52 weeks
[6] = 400 mg/day vs placebo, Overall Cohort, 52 weeks
[7] = 400 mg/day, CKD Cohort N = 76, 52 weeks
[8] = 400 mg/day, overall cohort N = 525, positively adjudicated, through 52 Weeks

With `CCOc1ccc(Cc2cc([C@@H]3O[C@H](SC)[C@@H](O)[C@H](O)[C@H]3O)ccc2Cl)cc1` [sotagliflozin, (2S,3R,4R,5S,6R)-2-(4-chloro-3-(4-ethoxybenzyl)phenyl)-6-(methylthio)tetrahydro-2H-pyran-3,4,5-triol] the “No Weight Gain at Week 52, HbA1c <7.0%: Absolute difference in %” value (200 mg/day vs PBO) was 12.6%, the “No Weight Gain at Week 52, reduction in HbA1c ≥0.5%: Absolute difference in %” value (200 mg/day vs PBO) was 14.9% and the “DKA, HR (95% CI)” value [1] was 3.2 (0.4, 29.0). The “Severe hypoglycemia, HR (95% CI)” value [1] was 0.34 (0.13, 0.91), the “DKA, HR (95% CI)” value [2] was 15.0 (2.0, 113.3) and the “Severe hypoglycemia, HR (95% CI)” value [2] was 0.76 (0.47, 1.22). For the same molecule, the “DKA, n (%)” value [3] was 4 (4.7) n (%), the “Severe hypoglycemia, n (%)” value [3] was 6 (7.1) n (%) and the “No Weight Gain at Week 52: % with absolute reduction in HbA1c ≥0.5%” value (200 mg/day) was 23.7%. The “No Weight Gain at Week 52: Percentage HbA1c <7.0%” value (200 mg/day) was 21.8%, the “Weight, LS Mean (SE) kg: Percent Change (%) from Baseline at Week 24” value (200 mg/day) was −1.70 (0.137) % and the “Weight, LS Mean (SE) kg: Percent Change (%) from Baseline at Week 52” value (200 mg/day) was −2.31 (0.208) %. The “Weight, LS Mean (SE): Treatment Comparison vs. PBO, Week 24” value (200 mg/day) was −2.17 (0.188) %, the “Weight, LS Mean (SE): Treatment Comparison vs. PBO, Week 52” value (200 mg/day) was −3.21 (0.291) % and the “DKA, n (%)” value [4] was 15 (2.9) n (%). The “Severe hypoglycemia, n (%)” value [4] was 30 (5.7) n (%), the “HbA1c change from Baseline, Week 24 Treatment Comparison LS Mean (SE), %” value (200 mg/day, overall cohort n = 524) was −0.36% and the “Any TEAE, n (%)” value (200 mg/day, through 52 Weeks) was 393 (75.0) n (%). The “Diarrhea, n (%)” value (200 mg/day, through 52 Weeks) was 34 (6.5) n (%), the “Genital mycotic infection, n (%)” value (200 mg/day, through 52 Weeks) was 48 (9.2) n (%) and the “HbA1c change from Baseline, Week 52 Treatment Comparison LS Mean (SE), %” value (200 mg/day) was −0.23%. The “No Weight Gain at Week 52, HbA1c <7.0%: Absolute difference in %” value (400 mg/day vs PBO) was 17.0%, the “No Weight Gain at Week 52, reduction in HbA1c ≥0.5%: Absolute difference in %” value (400 mg/day vs PBO) was 20.0% and the “DKA, HR (95% CI)” value [5] was 1.9 (0.2, 20.8). The “Severe hypoglycemia, HR (95% CI)” value [5] was 0.2 (0.06, 0.70), the “DKA, HR (95% CI)” value [6] was 20.3 (2.7, 151.2) and the “Severe hypoglycemia, HR (95% CI)” value [6] was 0.58 (0.35, 0.97). The “DKA, n (%)” value [7] was 2 (2.6) n (%), the “Severe hypoglycemia, n (%)” value [7] was 3 (3.9) n (%) and the “No Weight Gain at Week 52: % with absolute reduction in HbA1c ≥0.5%” value (400 mg/day) was 28.8%. The “No Weight Gain at Week 52: Percentage HbA1c <7.0%” value (400 mg/day) was 26.1%, the “Weight, LS Mean (SE) kg: Percent Change (%) from Baseline at Week 24” value (400 mg/day) was −2.55 (0.137) % and the “Weight, LS Mean (SE) kg: Percent Change (%) from Baseline at Week 52” value (400 mg/day) was −3.33 (0.209) %. For the same molecule, the “Weight, LS Mean (SE): Treatment Comparison vs. PBO, Week 24” value (400 mg/day) was −3.02 (0.188) %, the “Weight, LS Mean (SE): Treatment Comparison vs. PBO, Week 52” value (400 mg/day) was −4.24 (0.291) % and the “DKA, n (%)” value [8] was 20 (3.8) n (%). For the same molecule, the “Severe hypoglycemia, n (%)” value [8] was 23 (4.4) n (%), the “HbA1c change from Baseline, Week 24 Treatment Comparison LS Mean (SE), %” value (400 mg/day, overall cohort n = 525) was −0.38% and the “Any TEAE, n (%)” value (400 mg/day, through 52 Weeks) was 390 (74.3) n (%). The “Diarrhea, n (%)” value (400 mg/day, through 52 Weeks) was 46 (8.8) n (%), the “Genital mycotic infection, n (%)” value (400 mg/day, through 52 Weeks) was 63 (12.0) n (%) and the “HbA1c change from Baseline, Week 52 Treatment Comparison LS Mean (SE), %” value (400 mg/day) was −0.32%. For the same molecule, the “efficacy (A1C, body weight, DTSQ change from baseline) by BMI subgroup” value (patients with BMI≥27 kg/m^2 compared to the lower BMI subgroup, Week 24) was “systematically better”, the “relative risk of severe hypoglycemia” value (sotagliflozin compared to placebo in the CKD cohort) was “lower” and the “relative risk of DKA” value (sotagliflozin relative to placebo in the CKD cohort) was “not significantly higher”. For the same molecule, the “A1C and BW in the CKD subgroup” value (to a similar extent as the overall cohort) was “significantly reduced”.

Source: US20250108032A1, “METHODS OF TREATING TYPE 1 DIABETES AND KIDNEY DISEASE” (LEXICON PHARMACEUTICALS, INC., priority 2023, published 2025)
